Measurements taken from PMC2719696, “Kinetics and Cellular Site of Glycolipid Loading Control the Outcome of Natural Killer T Cell Activation” (Immunity, 2009).

Tested on: detergent-resistant membrane microdomains
Test: Flow cytometry assay of αGalCer-mCD1d complex association with detergent-resistant membrane microdomains (JAWS II cells)
Type: cell-based, mouse
Conditions: 0.1% Triton X-100
Procedure: The scale bar represents 10 μm. Results shown for individual cells were typical of >20 cells analyzed for each parameter with or without incubation with the indicated glycolipids. (B) Quantitation of colocalization shown in (A) for multiple randomly selected individual cells. Pearson correlation coefficient for the distribution of pixel densities for K253 or L363 fluorescence compared to cholera toxin B-specific fluorescence are plotted for each individual cell analyzed. Values for p were determined by one-way ANOVA. (C) Flow cytometry assay for αGalCer-mCD1d complex association with detergent-resistant membrane microdomains. […] Baseline fluorescence levels were recorded for 15 s, after which Triton X-100 was added to 0.1% (arrow) and recording was resumed for another ∼60 s. Each symbol indicates mean fluorescence intensity (MFI) averaged over 1 s of recording. […]
Another property of lipid rafts is their resistance to solubilization by nonionic detergents due to their enrichment in cholesterol, sphingomyelin, and saturated acyl chains ([Pike, 2008]). To assess the localization of αGalCer-mCD1d complexes in detergent insoluble microdomains, we used a flow-cytometry-based assay that quantitates the resistance of lipid-raft-associated transmembrane proteins to extraction by low concentrations of Triton X-100 ([Gombos et al., 2004a; Peng et al., 2007]). […]

CCCCCCCCCCCCCCC(O)C(O)C(COC1OC(CO)C(O)C(O)C1O)NC(=O)CCCCCCCCC (centres unmarked) [αGalCer-C10:0]
extraction of mCD1d complexes (L363 staining) by detergent, in words: mainly localized to detergent soluble nonraft domains

CCCCCC=CCC=CCCCCCCCCCC(=O)NC(COC1OC(CO)C(O)C(O)C1O)C(O)C(O)CCCCCCCCCCCCCC (centres unmarked) [αGalCer-C20:2]
extraction of mCD1d complexes (L363 staining) by detergent, in words: significant extraction by detergent
